Tests used:
[1] = Inhibitory activity against Entamoeba histolytica pyrophosphate-dependent phosphofructokinase (PFK) (Range is 600-1200); format: functional
Entamoeba histolytica = test: In vitro growth inhibition against Entamoeba histolytica; format: functional, organism-based
Mus musculus = test: Mean reduction in parasitaemia of Plasmodium berghei ANKA suppressive test in mice (Mus musculus) (in vivo) at 25 mg/kg scheduled for 4 days; format: functional
Plasmodium falciparum = test: microbe, parasite or virus in culture
Description: In vitro growth inhibition against Plasmodium falciparum

in vitro = details: human, KB cells (nasopharyngeal carcinoma)
Description: Toxicity evaluated against human nasopharyngeal carcinoma KB cell line

`CCCCCC(O)(P(=O)(O)O)P(=O)(O)O` showed an IC50 [1] of 1200 µM, an IC50 (Entamoeba histolytica) of 157 µM and a Reduction (Mus musculus) of 80%. The IC50 (Plasmodium falciparum) was 5.53 µM and the CC50 (in vitro) was greater than 993 µM.

From ChEMBL document CHEMBL1148279, “Effects of bisphosphonates on the growth of Entamoeba histolytica and Plasmodium species in vitro and in vivo” (J Med Chem, 2004)
